Laboratory results published in patent US7803801B2, “Aminopyridine compounds having Syk inhibitory activity” (Japan Tobacco, Inc., priority 2005, dated 2010).

Key:
[1] = tested on: cultured human mast cells; experiment: Degranulation inhibition test using cultured human mast cells (IgE cross-linking, β-Hexosaminidase release); format: cell-based; conditions: Mast cell; cultured human mast cells, anti-hIgE stimulation, β-Hexosaminidase index, average; read-out: human degranulation ave. IC50
Procedure: Degranulation Inhibition Test Using Cultured Human Mast Cells
(1) Separation of Hematopoietic Stem Cells;
After 10 to 60 mL of umbilical cord blood collected with heparin was diluted with an equivalent amount of buffer (0.5% BSA, 2 mM EDTA/PBS-), it was superposed on Ficoll-Paque (Amersham Pharmacia Biotech) (Ficoll/Blood (1:2)) and mononuclear leukocyte fraction was collected by centrifuging it at 400 G (1350 rpm) 4° C. for 30 minutes. After centrifugal washing (1500 rpm, 5 min, 4° C.×3) with buffer, the number of cells was counted and 0.1 mL of CD34 Progenitor Cell Isolation Kit (Miltenyi Biotec), Reagent A1 (Fc blocking) was added for 1×10^8 cells. After agitation, 0.1 mL of Reagent A2 (CD34 antibody-hapten) was added (final volume 0.5 mL/1×10^8 cells) and incubated at 9° C. for further 15 minutes after agitation. After centrifugal washing (1500 rpm, 5 min, 4° C.×3), it was resuspeded in a buffer (0.4 mL) and 0.1 mL of Reagent B (anti hapten antibody-microbeads) was added and agitated (final volume 0.5 mL/1×10^8 cells) and incubated at 9° C. for further 15 minutes. After centrifugal washing (1500 rpm, 5 min, 4° C.×2), it was resuspeded in a buffer (0.5 mL) and loaded on CS column (Miltenyi Biotec) set in MACS (MAgnetic Cell Sorting system; Miltenyi Biotec, Daiichi Pure Chemicals) and washed with 30 mL of buffer to remove CD34^− cells. The column was separated from MACS and eluted with 30 mL of buffer and CD34^+ cells bound to the column were collected and used as a hematopoietic stem cell population.
(2) Acquisition of Human Mast Cells by Long-Term Culturing of Hematopoietic Stem Cells;
The CD34^+ cells separated in (1) were resuspended in Iscove's Modified Dulbecco's Medium (IMDM, Gibco) containing human (rh)SCF (1 μg/mL, Peprotech), rhIL-6 (0.5 μg/mL, Peprotech), rhIL-3 (10 ng/mL, Peprotech), 1% Insulin-Transferrin (Gibco), 5×10^−5M 2-ME (Gibco), 0.1% BSA (Sigma) in a density of 1×10^6 cells/ml and disseminated on 24-well culture plate with a dose of 0.1 mL/well and 0.9 ml of IMDM (Methocult SF^BIT StemCell technology) containing 0.9% methyl cellulose was added and culturing was started. The above culture medium (excluding methyl cellulose) was added in a week and after that 100 μL/well of the above culture medium (further excluding IL-3) was added at an interval of every once a week so that cells were diluted to maintain 10^5 cells/mL/well order and cultured more than about 8 weeks and thereby human culture mast cells were obtained.
(3) Expression Enhancement of FcεRI and Inhibition Test IgE Cross-Linking Stimulating Degranulation;
rhIL-4 (final concentration 1 ng/mL, R & D) and Homo sapiens(h) IgE (final concentration 0.5 μg/mL, CHEMICON) were added to the obtained human culture mast cells, and they were incubated for 5 days to enhance the expression of FcεRI. After incubation, cells were collected and, after centrifugal washing (IMDM), they were disseminated on 96-well culture plate in 5×10^4 cells/80 μL/well.
10 μL of a compound 10-fold diluted with IMDM after dissolved in DMSO (DMSO final concentration 0.1%) was added and reacted at 37° C. for 10 minutes. Further, 10 μL of anti-hIgE Ab (CHEMICON) adjusted to 100 μg/mL (final concentration 10 μg/mL) was added and degranulation was caused by being stimulated at 37° C. for 30 minutes. After centrifugation, 50 μL/well of the supernatant was collected and stored at −40° C. untill the quantity of degranulation was measured. The measurement of quantity of degranulation was performed using enzymatic activity of β-Hexosaminidase contained in the granulates as an index. That is, an equivalent amount of p-nitrophenyl-N-acetyl-β-D-glucosaminide (1 mM) (containing 0.1% Triton X-100) which is a substrate of β-Hexosaminidase was added to 50 μL of the culture filtrate, and after reacted at 37° C. for 2 hours, the reaction was terminated by using 100 μL of Carbonate buffer (0.1M, pH 10). […]

[2] = target: GST-Syk Full Protein (human) (Homo sapiens, UniProt P43405); experiment: Syk kinase inhibition test (HTRF method); format: biochemical; conditions: HTRF, 100 μM ATP, 30 min room temperature, average; read-out: sykHTRF ave IC50
In short: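 Human GST-Syk full-length (6.4 nM) phosphorylated biotin-EDPDYEWPSA-NH2 (250 nM) with 100 μM ATP in HEPES pH 7.0/MgCl2 buffer, 2% DMSO, 30 min at room temperature. EDTA stop, then HTRF detection (streptavidin-XL665, Eu anti-phosphotyrosine) after 1 h; 665/620 ratio read.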

| Structure (SMILES) | IC50 [1] | IC50 [2] |
| --- | --- | --- |
| Cc1ccnc(Nc2cccc(-c3cnc(C(=O)NCCO)s3)n2)c1 [Compound A-29] | 100 to 1000 nM | 100 to 1000 nM |
| Cc1ccnc(Nc2cccc(-c3cnc([C@H](C)NC(=O)C(C)C)s3)n2)c1 [Compound A-31] | 100 to 1000 nM | 100 to 1000 nM |
| Cc1ccnc(Nc2cccc(-c3cnc([C@H](C)NC(=O)[C@H](C)O)s3)n2)c1 [Compound A-32] | 100 to 1000 nM | 100 to 1000 nM |
| Cc1ccnc(Nc2cccc(-c3cnc(C(=O)NC(C)(C)CO)s3)n2)c1 [Compound A-34] | > 1000 nM | 100 to 1000 nM |
| C/C(=N\OCCO)c1ncc(-c2cccc(Nc3cc(C)ccn3)n2)s1 [Compound A-35, 1-{5-[6-(4-methylpyridin-2-ylamino)pyridin-2-yl]thiazol-2-yl}ethanone 0-(2-hydroxyethyl)oxime] | 100 to 1000 nM | < 100 nM |
| Cc1ccnc(Nc2cccc(-c3cnc([C@@H](NC(=O)OC(C)(C)C)C(C)C)s3)n2)c1 [Compound A-36] | > 1000 nM | > 1000 nM |
| Cc1ccnc(Nc2cccc(-c3cnc([C@H](Cc4ccccc4)NC(=O)OC(C)(C)C)s3)n2)c1 [Compound A-39] | > 1000 nM | > 1000 nM |
| Cc1ccnc(Nc2cccc(-c3cnc([C@@H](N)Cc4ccccc4)s3)n2)c1 [Compound A-40] | > 1000 nM | 100 to 1000 nM |
| CC(=O)N[C@@H](Cc1ccccc1)c1ncc(-c2cccc(Nc3cc(C)ccn3)n2)s1 [Compound A-41] | > 1000 nM | 100 to 1000 nM |
| Cc1ccnc(Nc2cccc(-c3cnc([C@H](COCc4ccccc4)NC(=O)OC(C)(C)C)s3)n2)c1 [Compound A-43] | > 1000 nM | > 1000 nM |
| Cc1ccnc(Nc2cccc(-c3cnc([C@@H](N)COCc4ccccc4)s3)n2)c1 [Compound A-44] | > 1000 nM | > 1000 nM |
| CC(=O)N[C@@H](COCc1ccccc1)c1ncc(-c2cccc(Nc3cc(C)ccn3)n2)s1 [Compound A-45] | > 1000 nM | > 1000 nM |
| Cc1ccnc(Nc2cccc(-c3cnc([C@H](CCCCNC(=O)OC(C)(C)C)NC(=O)OCc4ccccc4)s3)n2)c1 [Compound A-49] | > 1000 nM | > 1000 nM |
| Cc1ccnc(Nc2cccc(-c3cnc([C@H](C)N(C)C(=O)OC(C)(C)C)s3)n2)c1 [Compound A-50] | > 1000 nM | 100 to 1000 nM |
| CC(=O)N(C)[C@@H](C)c1ncc(-c2cccc(Nc3cc(C)ccn3)n2)s1 [Compound A-52, N-methyl-((S)-1-{5-[6-(4-methylpyridin-2-ylamino)pyridin-2-yl]thiazol-2-yl}ethyl)acetamide] | 100 to 1000 nM | < 100 nM |
| Cc1ccnc(Nc2cccc(-c3cnc(C(=O)NCCCO)s3)n2)c1 [Compound A-53] | 100 to 1000 nM | 100 to 1000 nM |
| Cc1ccnc(Nc2cccc(-c3cnc(C(=O)NC(C)CO)s3)n2)c1 (stereo not drawn) [Compound A-54] | > 1000 nM | 100 to 1000 nM |
| Cc1ccnc(Nc2cccc(-c3cnc([C@H](C)NC(=O)N(C)C)s3)n2)c1 [Compound A-56] | 100 to 1000 nM | 100 to 1000 nM |
| COC(=O)N[C@@H](C)c1ncc(-c2cccc(Nc3cc(C)ccn3)n2)s1 [Compound A-57] | 100 to 1000 nM | 100 to 1000 nM |
| Cc1ccnc(Nc2cccc(-c3cnc([C@H](C)NS(C)(=O)=O)s3)n2)c1 [Compound A-58] | 100 to 1000 nM | 100 to 1000 nM |
| CC(=O)N[C@@H](CO)c1ncc(-c2cccc(Nc3cc(C)ccn3)n2)s1 [Compound A-59] | 100 to 1000 nM | 100 to 1000 nM |
| Cc1ccnc(Nc2cccc(-c3cnc(C(=O)NCC(C)(C)CO)s3)n2)c1 [Compound A-62] | > 1000 nM | 100 to 1000 nM |
| CC(=O)NCCCC[C@H](NC(C)=O)c1ncc(-c2cccc(Nc3cc(C)ccn3)n2)s1 [Compound A-64] | 100 to 1000 nM | 100 to 1000 nM |

Other lines, results leading:

| IC50 [1] | IC50 [2] | Structure (SMILES) |
| --- | --- | --- |
| 100 to 1000 nM | < 100 nM | Cc1ccnc(Nc2cccc(-c3cnc([C@H](C)O)s3)n2)c1 [Compound A-26, (S)-1-{5-[6-(4-methylpyridin-2-ylamino)pyridin-2-yl]thiazol-2-yl}ethanol] |
| 100 to 1000 nM | < 100 nM | CC(=O)c1ncc(-c2cccc(Nc3cc(C)ccn3)n2)s1 [Compound A-27, 1-{5-[6-(4-methylpyridin-2-ylamino)pyridin-2-yl]thiazol-2-yl}ethanone] |
| 100 to 1000 nM | < 100 nM | CCOC(=O)c1ncc(-c2cccc(Nc3cc(C)ccn3)n2)s1 [Compound A-28, 5-[6-(4-methylpyridin-2-ylamino)pyridin-2-yl]thiazole-2-carboxylic acid ethyl ester] |
| 100 to 1000 nM | < 100 nM | CC(=NO)c1ncc(-c2cccc(Nc3cc(C)ccn3)n2)s1 [Compound A-30, 1-{5-[6-(4-methylpyridin-2-ylamino)pyridin-2-yl]thiazol-2-yl}ethanone oxime] |
| 100 to 1000 nM | < 100 nM | Cc1ccnc(Nc2cccc(-c3cnc([C@@H]4CCC(=O)O4)s3)n2)c1 [Compound A-33, (S)-5-{5-[6-(4-methylpyridin-2-ylamino)pyridin-2-yl]thiazol-2-yl}dihydrofuran-2-one] |
| > 1000 nM | 100 to 1000 nM | Cc1ccnc(Nc2cccc(-c3cnc([C@@H](N)C(C)C)s3)n2)c1 [Compound A-37] |
| 100 to 1000 nM | 100 to 1000 nM | CC(=O)N[C@H](c1ncc(-c2cccc(Nc3cc(C)ccn3)n2)s1)C(C)C [Compound A-38] |
| > 1000 nM | 100 to 1000 nM | Cc1ccnc(Nc2cccc(-c3cnc([C@@H]4CCCN4)s3)n2)c1 [Compound A-42] |
| 100 to 1000 nM | < 100 nM | CON(C)C(=O)c1ncc(-c2cccc(Nc3cc(C)ccn3)n2)s1 [Compound A-46, N-methoxy-N-methyl-5-[6-(4-methylpyridin-2-ylamino)pyridin-2-yl]thiazole-2-carboxamide] |
| 100 to 1000 nM | < 100 nM | CNC(=O)c1ncc(-c2cccc(Nc3cc(C)ccn3)n2)s1 [Compound A-47, N-methyl-5-[6-(4-methylpyridin-2-ylamino)pyridin-2-yl]thiazole-2-carboxamide] |
| 100 to 1000 nM | 100 to 1000 nM | CC(=O)N1CCC[C@H]1c1ncc(-c2cccc(Nc3cc(C)ccn3)n2)s1 [Compound A-48] |
| 100 to 1000 nM | 100 to 1000 nM | CN[C@@H](C)c1ncc(-c2cccc(Nc3cc(C)ccn3)n2)s1 [Compound A-51] |
| 100 to 1000 nM | < 100 nM | Cc1ccnc(Nc2cccc(-c3cnc([C@@H]4CCC(=O)N4)s3)n2)c1 [Compound A-55, (S)-5-{5-[6-(4-methylpyridin-2-ylamino)pyridin-2-yl]thiazol-2-yl}pyrrolidin-2-one] |
| 100 to 1000 nM | 100 to 1000 nM | Cc1ccnc(Nc2cccc(-c3cnc(C4CCC(=O)CC4)s3)n2)c1 [Compound A-60] |
| 100 to 1000 nM | 100 to 1000 nM | Cc1ccnc(Nc2cccc(-c3cnc(C(=O)N4CCCC(O)C4)s3)n2)c1 (stereo not drawn) [Compound A-61] |
| 100 to 1000 nM | 100 to 1000 nM | Cc1ccnc(Nc2cccc(-c3cnc([C@H](C)NC(C)C)s3)n2)c1 [Compound A-65] |
